Measured values: US12473310B2, “Vitamin D3 phosphate and pharmaceutically acceptable salts thereof, pharmaceutical compositions comprising the compound and methods for preparing the compound” (King's College London, priority 2020, dated 2025)
Where a name gives a salt, the structure may show the parent alone.

How the values were obtained:
[1] = physchem; type: physicochemical; details: thermodynamic from solid, visual
Experimental: An aliquot of 2.5 mg cholecalciferol and 2.5 mg cholecalciferol phosphate disodium salt prepared according to Example 1 were weighed into glass vials and 100 μL aliquots of the test solvents with different dielectric constants; water, MeOH:water (90:10), ethylene glycol, methanol (MeOH), propylene glycol (PG), ethanol (EtOH), poly(ethylene glycol) (PEG-400), and mineral oil were added until the sample was fully dissolved visually. A precise determination of the solubility was undertaken using high-performance liquid chromatography (HPLC). In the HPLC solubility studies an excess amount of cholecalciferol and cholecalciferol phosphate was added into 2 mL of each test solvent; water, MeOH:water (90:10), MeOH, and PG, EtOH and mineral oil. The solutions were left stirring overnight at room temperature, (RT), 22° C. The saturation of the solutions was confirmed by the visual appearance of crystals and the drug suspensions were filtered through 0.2 μm syringe filters, diluted, and the concentration of each sample was assessed using the HPLC method detailed below.

[2] = physchem; type: physicochemical; details: for % Recovery, chemical stability with extraction fluid: 0.091 mg/mL; for recovery at 0.091 mg/mL: chemical stability with extraction fluid
Experimental: To validate the method of test agent recovery from the skin, solutions (1.0 mg/mL) of cholecalciferol phosphate were prepared in 100% PG and 100% water and the same concentration of cholecalciferol was prepared in 100% PG and PG:EtOH (50:50). The precise concentrations in these samples were analysed by HPLC using the method described above.
To assess the chemical stability of cholecalciferol and cholecalciferol phosphate in the donor solutions used in the Franz cell experiments, the 1.0 mg/mL of the samples prepared in the different solvents were incubated in a water bath at 37° C. for 24 h. In addition, to understand the chemical stability of cholecalciferol and cholecalciferol phosphate in the extraction solvents used in the skin deposition studies, a 1 mL of the sample of the drug in the different solvents was added into 10 mL of extraction fluid (PG:EtOH, 50:50 for cholecalciferol and MeOH:water, 90:10 for cholecalciferol phosphate). Samples with the extraction fluid were left in the water bath overnight at 37° C. and the sample concentration was analysed by HPLC method described above.

[3] = skin permeation and deposition, automated Franz diffusion cell (Example 5); type: in vitro ADME; details: PG formulation
Experimental: For the final formulation, 61.5 mg of cholecalciferol phosphate acid in 4.1 mL hexane was added into 1.435 mL DURO-TAK 87-2051 (51.5 w/v %) with 16.4 μL α-tocopherol and 20.5 μL diethylene glycol monoethyl ether. Likewise, 120 mg of cholecalciferol phosphate disodium salt in 35.2 mL MeOH:water (10:1) was added to 1.336 mL of DURO-TAK 87-2051 (51.5 w/v %) in 56 mL ethyl acetate with 32 mg of α-tocopherol and 48 μL diethylene glycol monoethyl ether. Each formulation was spread evenly on the 10×10 cm patch tray and left overnight to dry completely. Following the complete drying of the solvents, the adhesive layer was covered by the M3 Release layer (SCOTCHPAK 9755, UK), compressed, and then cut using a 34 mm circular manual die cutter (SCP Super Cutting Press, UK).
Subsequently, 1 mL aliquots were applied to the skin.
The automated Franz diffusion cell was used to investigate the permeation of cholecalciferol, cholecalciferol phosphate salt and cholecalciferol phosphate acid through porcine skin. Fresh white adult porcine ears were obtained from a local butcher (Ginger Pig, UK). Any damaged ears were discarded. The ears were removed from the carcass after hair removal. […] The collected receiver fluid was analysed by HPLC methods described previously.
At the end of the transport studies, the Franz cells were dismantled, and the donor solution was collected into bottles containing 10 mL of extraction fluid; MeOH for cholecalciferol, cholecalciferol phosphate acid and MeOH:water (90:10) for cholecalciferol phosphate salt, by wiping the surface of the skin and the inside of the donor compartment with two wet and then two dry cotton buds. […] Each collection was analysed by the HPLC method described above. Thus, the amount of each test agent on the surface of the skin, deposited in the skin, and passed into the receiver fluid was determined so that % mass recovery per cm^2 per skin could be calculated and drug deposition profiles could be obtained.

Compound | solubility ([1]; organic solvent or mixture) | solubility ([1]; water) | % Recovery, chemical stability with extraction fluid [2] | degradation ([2]; 24 h, 1 mg/mL) | recovery at 0.091 mg/mL ([2]; % Recovery) | fold higher transdermal permeation through the skin compared to cholecalciferol ([3]; phosphate disodium salt) | solubility ([1]; oil or lipid) | recovery at 24 h, 1 mg/mL ([2]; % Recovery, chemical stability without extraction fluid) | transdermal permeation through the skin ([3]; 1.0 mm porcine skin, 24 h)
C=C1CC[C@H](OP(=O)(O)O)C/C1=C/C=C1\CCC[C@@]2(C)C1CC[C@@H]2[C@H](C)CCCC(C)C (some centres unmarked) [Cholecalciferol phosphate disodium salt, cholecalciferol phosphate disodium salt] | < 2000 µg/mL | < 2500 µg/mL | 76.01 ± 1.42% | 20% | 95.2 ± 5.88% | ~35.02 fold | – | – | –
C=C1CC[C@H](O)C/C1=C/C=C1\CCC[C@]2(C)[C@@H]([C@H](C)CCCC(C)C)CC[C@@H]12 [Cholecalciferol, cholecalciferol, reference compound] | – | – | 90.52 ± 0.42% | – | 91.76 ± 0.87% | – | > 25000 µg/mL | 90% | 1,245.2 IU
